Laboratory results from patent US6737407B1, “Treatment of obesity” (Metabolic Pharmaceuticals, Ltd., priority 1997, dated 2004).
Where no end group is shown, it is not given here.

Assays:
[1] = tested on: Human Abdominal adipose Tissue; test: Antilipogenic activity in human abdominal adipose tissue; assay type: cell-based; conditions: 0.1 μM peptide; BSA + insulin
Protocol: The rate of the incorporation of exogenous [C^14]-glucose into total lipid in adipose tissue was measured as the index of anti-lipogenic activity of hGH 177-191.
Adipose tissues were sliced into segments of approximately 200 mg each and then placed in Krebs-Ringer bicarbonate (KRB) buffer (pH 7.4) containing 2% defatted BSA, and glucose (0.1 mg/ml) and gassed with 95% O2-5% CO2 at 37° C. After 1 hr preincubation, the tissues were transferred to another 2 ml of fresh media containing [C^14]-glucose (final specific activity 0.05 μCi/μmol), […] of insulin (0.1 mU/ml) for a further 90 min incubation (conditions as above). Then the tissues were removed, washed thoroughly with KRB buffer and lipid was extracted with 5 ml of chlorofom/methanol (2:1, v/v) The extraction solution was washed with 2 ml of MeOH-H2O solution containing 0.1% MgCl2. A 2.5 ml aliquot of the washed extraction solution was taken and transferred to scintillation vials. The [C^14] radioactivity was measured with a liquid scintillation counter. The rates of total lipid synthesis were expressed as μmol [C^14]-glucose incorporated into lipid/g tissue/hr.
Tables 6 and 7 show the in vitro antilipogenic and lipolytic activity of hGH 177-191 and two representative analogues (Ref Nos. 9604 and 9605) on human adipose tissue.

hormone-sensitive lipase = test: Hormone-sensitive lipase (HSL) assay in isolated adipocytes; assay type: cell-based, rat
Protocol: The enzyme was expressed as U/mg protein, where the release of 1 nmole of oleic acid per hour was considered as 1 Unit of enzyme activity.
Hormone-sensitive lipase (HSL) activity of isolated adipocytes was used as a model to evaluate the lipolytic effect of hGH 177-191 peptide and analogues. In this assay [C^14]-triolein was used as a substrate by HSL. The amount of hydrolyzed [C^14]-oleic acid was determined and used as an index of HSL activity.
The adipocytes were prepared from the epididymal fat pads of male Zucker fatty (fa/fa) rats by collagenase digestion. Fat pads (5 g) were finely-cut into small (2-3 mm) pieces and placed in a siliconised glass vial containing 10 ml digestion medium. […] The isolated adipocytes were resuspended with 10 ml collagen-free buffer and the concentration of adipocytes was estimated by counting an aliquot of a pre-determined volume of cells on a microscope slide. […]
The HSL activity was measured at 37° C. for 1 hour in a final volume of 200 μl, containing 10 μmoles phosphate buffer (pH 7.0). […] The [C^14]-radioactivity was measured by a liquid scintillation counter. […] The HSL activity was expressed as U/mg protein, where the release of 1 nmole of oleic acid per hour was defined as 1 U of enzyme activity.

## LRIVQCRSVEGSCGF (cysteine pairing not given here) [Ref No. 9401]
[1]
  14C incorporation: 40 ± 3 Av DPM/mg tissue/hour
hormone-sensitive lipase
  effect on hormone-sensitive lipase (in words): effective in stimulating
